In US20260183274A1, “PDK1 REGULATORY COMPOUND AND COMPOSITION CONTAINING THE SAME” (PROVIBIO CO., LTD., priority 2024, published 2026):

How the values were obtained:
[1] = test system: T cells isolated from mouse spleens; assay: T cell proliferation inhibition (CFSE flow cytometry, anti-CD3/anti-CD28 stimulation); format: cell-based; conditions: mouse spleen T cells, 3 days; for inhibition at 0.01 µM / inhibition at 0.1 µM / inhibition at 1 µM / inhibition at 10 µM / inhibition at 30 µM / inhibition at 50 µM: Mus musculus, T-cell, 72 h, read-out: Proliferation inhibition rate (%)
Method in brief: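 Proliferation inhibition (%) came from flow cytometry of CFSE dilution after 3 days' culture at 37 °C with compound (10 nM, 100 nM, 1, 10, 30, 50 μM; triplicate wells). Cells were magnetically purified T cells from C57BL/6 mouse spleens, 2×10^5 per well, stimulated with 0.5 μg/mL each anti-CD3 and anti-CD28.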

[2] = test system: Human B Lymphocyte cell line, SU-DHL-8; assay: Relative cell viability CCK-8, SU-DHL-8; format: cell-based; conditions: for viability at 1 µM / viability at 10 µM / viability at 30 µM / viability at 50 µM: Homo sapiens, SU-DHL-8, 48 h; for viability at 1 µM: read-out: Relative cell viability (%), SU-DHL-8, 1 μM; for viability at 10 µM: read-out: Relative cell viability (%), SU-DHL-8, 10 μM; for viability at 30 µM: read-out: Relative cell viability (%), SU-DHL-8, 30 μM; for viability at 50 µM: read-out: Relative cell viability (%), SU-DHL-8, 50 μM
Description: Human-derived B lymphoma cell line SU-DHL-8 (Cat. #CRL-2961) purchased from ATCC was cultured in RPMI-1640 medium containing 10% FBS, 100 U/mL penicillin, and 100 μg/mL streptomycin.
The cell culture medium was then harvested, centrifuged at 1,300 rpm for 5 minutes, and the supernatant was removed. The cells were resuspended in the same medium and dispensed into a 96-well plate (Costar 96-well cell culture plate, Corning) at 90 μL per well, resulting in the conditions specified in Table 5.
Then, 10 μL of CCK-8 was added to each well, and the plates were incubated again at 37° C. in a 5% CO2 incubator for 4 hours.
In other words, when the survival rate of untreated cells (DMSO) is set at 100%, the relative cell survival rate in each group treated with the drug at different concentrations is indicated.

[3] = 1 μM, 48 hours, untreated (DMSO) = 100%
[4] = 10 μM, 48 hours, untreated (DMSO) = 100%
[5] = 30 μM, 48 hours, untreated (DMSO) = 100%
[6] = 48 hours, untreated (DMSO) = 100%

| SMILES | Proliferation inhibition rate (%) ([1]; compound 10 nM) | Proliferation inhibition rate (%) ([1]; compound 100 nM) | Proliferation inhibition rate (%) ([1]; compound 1 μM) | Proliferation inhibition rate (%) ([1]; compound 10 μM) | Proliferation inhibition rate (%) ([1]; compound 30 μM) | Proliferation inhibition rate (%) ([1]; compound 50 μM) | Relative cell viability (%), SU-DHL-8 [2, 3] | Relative cell viability (%), SU-DHL-8 [2, 4] | Relative cell viability (%), SU-DHL-8 [2, 5] | inhibition at 0.01 µM ([1]; compound 10 nM) | inhibition at 0.1 µM ([1]; compound 100 nM) | inhibition at 1 µM ([1]; compound 1 μM) | inhibition at 10 µM ([1]; compound 10 μM) | inhibition at 30 µM ([1]; compound 30 μM) | inhibition at 50 µM ([1]; compound 50 μM) | viability at 1 µM [2, 6] | viability at 10 µM [2, 6] | viability at 30 µM [2, 6] | viability at 50 µM [2, 6] | further results |
| --- | --- | --- | --- | --- | --- | --- | --- | --- | --- | --- | --- | --- | --- | --- | --- | --- | --- | --- | --- | --- |
| CC1CCN(CCCCCCCCCCCCNC(=O)c2cccnc2N)C1 (centres unmarked) [Compound 24, 2-Amino-N-(12-(3-methylpyrrolidin-1-yl)dodecyl) nicotinamide] | −7.33% | 100.00% | 100.00% | 100.00% | 100.00% | 100.00% | 8.38% | 1.65% | 0.62% |  |  |  |  |  |  |  |  |  |  |  |
| Nc1ncccc1C(=O)NCCCCCCCCCCCCN1CCS(=O)(=O)CC1 [Compound 25, 2-Amino-N-(12-(1,1-dioxidothiomorpholino)dodecyl) nicotinamide] | −2.67% | 89.43% | 100.00% | 100.00% | 100.00% | 100.00% | 9.73% | 1.26% | 0.11% |  |  |  |  |  |  |  |  |  |  | Relative cell viability (%), SU-DHL-8 ([2]; 50 μM, 48 hours, untreated (DMSO) = 100%): 0.95% |
| Nc1ncccc1C(=O)NCCCCCCCCCCCCN1CCC(F)C1 (centres unmarked) [Compound 26, 2-Amino-N-(12-(3-fluoropyrrolidin-1-yl)dodecyl) nicotinamide] | 2.13% | 100.00% | 100.00% | 100.00% | 100.00% | 100.00% | 1.70% | 1.04% | 0.05% |  |  |  |  |  |  |  |  |  |  |  |
| Nc1ncccc1C(=O)NCCCCCCCCCCCCN1CCN(Cc2ccc(F)cc2)CC1 [Compound 27, 2-Amino-N-(12-(4-(4-fluorobenzyl)piperazin-1-yl)dodecyl)nicotinamide] |  |  |  |  |  |  |  |  |  | 2.27% | 83.3% | 100% | 100% | 100% | 100% | 6.24% | 4.97% | 2.03% | 0.56% |  |
| COc1ccc(CN2CCN(CCCCCCCCCCCCNC(=O)c3cccnc3N)CC2)cc1 [Compound 28, 2-Amino-N-(12-(4-(4-methoxybenzyl)piperazin-1-yl)dodecyl)nicotinamide] |  |  |  |  |  |  |  |  |  | -0.27% | 100% | 100% | 100% | 100% | 100% | 5.46% | 2.82% | 0.33% |  | Relative cell viability (%), SU-DHL-8 ([2]; human, 48 h, 50 µM): −1.55% |
| CC1C2CCCN2CCN1CCCCCCCCCCCCNC(=O)c1cccnc1N (centres unmarked) [Compound 29, 2-Amino-N-(12-(1-methylhexahydropyrrolo[1,2-a]pyrazin-2 (1H)-yl)dodecyl)nicotinamide] |  |  |  |  |  |  |  |  |  | 4.15% | 100% | 100% | 100% | 100% | 100% | 3.85% | 1.86% | 1.25% | 1.03% |  |
| CC1CN(C(=O)OC(C)(C)C)C(C)CN1CCCCCCCCCCCCNC(=O)c1cccnc1N (centres unmarked) [Compound 30, tert-Butyl 4-(12-(2-aminonicotinamido)dodecyl)-2,5-dimethylpiperazine-1-carboxylate] |  |  |  |  |  |  |  |  |  | 1.34% | 100% | 100% | 100% | 100% | 100% | 7.9% | 2.6% | 1.86% | 1.06% |  |
